According to patent US10364256B2 (GlaxoSmithKline Intellectual Property Development Limited, priority 2015, dated 2019):

Tests used:
[1] = molecular target: T1, full length Keap1 protein / full length NRF2 protein (Homo sapiens, UniProt Q14145); test: NRF2-Keap1 TR-FRET Low Protein Assay; format: binding; details: 1.25 nM Keap1 FlagHis and 2.5 nM biotin-NRF2 added
T1 construct: full length NRF2 protein and full length Keap1 protein (Keap1 exists a dimer) are used; His
Outline: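 Flag-tagged full-length Keap1 was preincubated with compound (3-fold series) for 2.25 h at 37 °C in Tris pH 8.0/MgCl2/NaCl/BSA/DTT/CHAPS. Biotin-Avi-NRF2 (added at 2.5 nM) was then bound for 1.25 h at 4 °C. Eu-streptavidin/anti-Flag-APC TR-FRET (665/615 nm) was read after 1 h at RT, and pIC50 came from a four-parameter fit.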

[2] = molecular target: T2, Keap1 Kelch domain (321-609) / TAMRA-labeled 16mer NRF2 peptide (ETGE motif) (Homo sapiens, UniProt Q14145); test: NRF2-Keap1 FP Assay (Keap1 Kelch fluorescence polarization); format: binding; details: 20 nM Keap1 (321-609), 8 nM Tamra labeled peptide
T2 construct: the Kelch domain (321-609) of Keap1 is used
Outline: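 Compound dilutions (3-fold) were incubated 1 hr at room temperature with 20 nM Keap1 Kelch (321-609) and 8 nM TAMRA-labeled ETGE 16mer peptide. Buffer was 50 mM Tris pH 8.0, 100 mM NaCl, 5 mM MgCl2, 1 mM DTT, 2 mM CHAPS, 0.005% BSA. Fluorescence polarization (mP) was normalized to controls and fitted with a four-parameter equation to give pIC50.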

T1 sequence (Q14145 whole entry): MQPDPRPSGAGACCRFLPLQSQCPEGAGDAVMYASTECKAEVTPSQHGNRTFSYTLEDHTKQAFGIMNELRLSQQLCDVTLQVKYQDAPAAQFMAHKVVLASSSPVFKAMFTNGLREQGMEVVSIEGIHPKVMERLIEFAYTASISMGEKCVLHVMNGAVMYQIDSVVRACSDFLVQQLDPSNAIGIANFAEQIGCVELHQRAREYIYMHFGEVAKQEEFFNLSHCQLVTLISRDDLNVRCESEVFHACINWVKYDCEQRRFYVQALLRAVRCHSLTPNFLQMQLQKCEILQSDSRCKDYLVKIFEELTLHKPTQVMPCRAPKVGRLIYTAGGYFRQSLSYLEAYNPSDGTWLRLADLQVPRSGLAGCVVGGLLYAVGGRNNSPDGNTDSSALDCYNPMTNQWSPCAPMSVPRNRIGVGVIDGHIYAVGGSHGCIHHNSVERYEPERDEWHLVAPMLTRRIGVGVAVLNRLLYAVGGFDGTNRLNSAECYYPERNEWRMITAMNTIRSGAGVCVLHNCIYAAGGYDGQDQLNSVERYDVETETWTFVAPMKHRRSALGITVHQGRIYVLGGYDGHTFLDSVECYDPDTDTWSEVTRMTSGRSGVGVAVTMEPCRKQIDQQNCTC
T2 sequence (Q14145 321-609): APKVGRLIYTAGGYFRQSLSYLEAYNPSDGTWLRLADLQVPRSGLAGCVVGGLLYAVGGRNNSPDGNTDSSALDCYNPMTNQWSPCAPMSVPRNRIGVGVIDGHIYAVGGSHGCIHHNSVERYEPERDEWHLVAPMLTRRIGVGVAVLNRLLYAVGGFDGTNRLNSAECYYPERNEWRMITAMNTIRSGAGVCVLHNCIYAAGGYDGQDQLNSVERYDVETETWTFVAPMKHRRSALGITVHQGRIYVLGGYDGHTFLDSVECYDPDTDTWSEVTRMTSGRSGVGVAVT

| SMILES | IC50 [1] [nM] | IC50 [2] [nM] |
| --- | --- | --- |
| Cn1cc(C2CC2c2c(C(=O)O)cnn2-c2cccc(-c3cccc(OCc4cccc(F)c4)c3)c2)nn1 (stereo not drawn) [Example 224, 1-(3′-((3-Fluorobenzyl)oxy)-[1,1′-biphenyl]-3-yl)-5-(2-(1-methyl-1H-1,2,3-triazol-4-yl)cyclopropyl)-1H-pyrazole-4-carboxylic acid] | 100 to 1000 | 100 to 1000 |
| Cn1cc(C2CC2c2c(C(=O)O)cnn2-c2cccc(-c3cccc(OCCC(C)(C)C)c3)c2)nn1 (stereo not drawn) [Example 225, 1-(3′-(3,3-Dimethylbutoxy)-[1,1′-biphenyl]-3-yl)-5-(2-(1-methyl-1H-1,2,3-triazol-4-yl)cyclopropyl)-1H-pyrazole-4-carboxylic acid] | 10 to 100 | 10 to 100 |
| CC(Oc1cccc(-c2cccc(-n3ncc(C(=O)O)c3C3CC3c3cn(C)nn3)c2)c1)C1CCOCC1 (stereo not drawn) [Example 227, 5-(2-(1-Methyl-1H-1,2,3-triazol-4-yl)cyclopropyl)-1-(3′-(1-(tetrahydro-2H-pyran-4-yl)ethoxy)-[1,1′-biphenyl]-3-yl)-1H-pyrazole-4-carboxylic Acid] | 10 to 100 | 10 to 100 |
| CC(Oc1cccc(-c2cccc(-n3ncc(C(=O)O)c3C3CC3c3cn(C)nn3)c2)c1)C1CCCC1 (stereo not drawn) [Example 228, 1-(3′-(1-Cyclopentylethoxy)-[1,1′-biphenyl]-3-yl)-5-(2-(1-methyl-1H-1,2,3-triazol-4-yl)cyclopropyl)-1H-pyrazole-4-carboxylic acid] | 10 to 100 | 10 to 100 |
| Cn1cc(C2CC2c2c(C(=O)O)cnn2-c2cccc(-c3cccc(OC4CCCCC4)c3)c2)nn1 (stereo not drawn) [Example 229] | 10 to 100 | 10 to 100 |
| CC(Oc1cccc(-c2cccc(-n3ncc(C(=O)O)c3C3CC3c3cn(C)nn3)c2)c1)C1CC1 (stereo not drawn) [Example 231, 1-(3′-(1-Cyclopropylethoxy)-[1,1′-biphenyl]-3-yl)-5-(2-(1-methyl-1H-1,2,3-triazol-4-yl)cyclopropyl)-1H-pyrazole-4-carboxylic acid] | 10 to 100 | 10 to 100 |
| Cn1cc(C2CC2c2c(C(=O)O)cnn2-c2cccc(-c3cccc(OC4CCCN(C(=O)OC(C)(C)C)C4)c3)c2)nn1 (stereo not drawn) [Example 232, 1-(3′-((1-(tert-Butoxycarbonyl)piperidin-3-yl)oxy)-[1,1′-biphenyl]-3-yl)-5-(2-(1-methyl-1H-1,2,3-triazol-4-yl)cyclopropyl)-1H-pyrazole-4-carboxylic acid] | 10 to 100 | 100 to 1000 |
| Cn1cc(C2CC2c2c(C(=O)O)cnn2-c2cccc(-c3cccc(CCC4CCCCC4)c3)c2)nn1 (stereo not drawn) [Example 233, 1-(3′-(2-Cyclohexylethyl)-[1,1′-biphenyl]-3-yl)-5-(2-(1-methyl-1H-1,2,3-triazol-4-yl)cyclopropyl)-1H-pyrazole-4-carboxylic Acid] | 10 to 100 | 100 to 1000 |
| Cn1cc(C2CC2c2c(C(=O)O)cnn2-c2cccc(-c3cccc(OC4CCOCC4)c3F)c2)nn1 (stereo not drawn) [Example 234, 1-(2′-Fluoro-3′-((tetrahydro-2H-pyran-4-yl)oxy)-[1,1′-biphenyl]-3-yl)-5-(2-(1-methyl-1H-1,2,3-triazol-4-yl)cyclopropyl)-1H-pyrazole-4-carboxylic Acid] | 10 to 100 | 10 to 100 |
| CC(Oc1cccc(-c2cccc(-n3ncc(C(=O)O)c3C3CC3c3cn(C)nn3)c2)c1)c1ccccc1 (stereo not drawn) [Example 235, 5-(2-(1-Methyl-1H-1,2,3-triazol-4-yl)cyclopropyl)-1-(3′-(1-phenylethoxy)-[1,1′-biphenyl]-3-yl)-1H-pyrazole-4-carboxylic Acid] | 10 to 100 | 10 to 100 |
| Cn1cc(C2CC2c2c(C(=O)O)cnn2-c2cccc(-c3cccc(C(=O)C4CCCCC4)c3)c2)nn1 (stereo not drawn) [Example 243, 1-(3′-(Cyclohexanecarbonyl)-[1,1′-biphenyl]-3-yl)-5-(2-(1-methyl-1H-1,2,3-triazol-4-yl)cyclopropyl)-1H-pyrazole-4-carboxylic Acid] | 10 to 100 | 10 to 100 |
| COC(c1cccc(-c2cccc(-n3ncc(C(=O)O)c3C3CC3c3cn(C)nn3)c2)c1)C1CCCCC1 (stereo not drawn) [Example 244, 1-(3′-(Cyclohexyl(methoxy)methyl)-[1,1′-biphenyl]-3-yl)-5-(2-(1-methyl-1H-1,2,3-triazol-4-yl)cyclopropyl)-1H-pyrazole-4-carboxylic acid] | 10 to 100 | 10 to 100 |
